The text below walks through data of patent publication US11266753B2, “2-[5-(imidazol-1-ylmethyl)pyridin-3-yl]benzimtdazole derivative compound, and medicament including same” (Nihon Medi-Physics Co., Ltd., priority 2017, dated 2022).

Series [1] is described as follows: Pharmacokinetic distribution experiment (PET, SUV of liver, kidney, spleen). Type of series: in vivo, normal rats. The note with it: FIG. 2; for radioactivity accumulation in tissues (the liver, kidney, and spleen) surrounding the adrenal glands: PET SUV at 60 minutes and 180 minutes after the administration; for high radioactivity accumulation that would be an obstacle in the adrenal gland imaging: liver, kidney, spleen, 60 and 180 minutes after the administration. Here is the method: The compounds according to the present invention (Compounds [^18F]101, [^18F]102, and [^18F]103) were administered to three normal rats without anesthesia. Imaging data for 15 minutes under isoflurane anesthesia were collected at 60 minutes and 180 minutes after the administration. The imaging data were subjected to image reconstruction by a positron emission tomography (PET) device (instrument: eXplore VISTA, manufactured by GE Healthcare Japan Corporation), and then a volume of interest (VOI) was set in each of the liver, kidney, and spleen, and a standardized uptake value (SUV) of each tissue was determined as in formula (5).

For series [2], the system named is normal region in an adjacent part to the lesion region (human adrenal section). In words: In vitro autoradiography using human adrenal tumor: binding ability to normal region. Particulars: relative to [123I]IMTO = 1, human plasma, 37° C., 10 minutes. Here is the method: (§1) By using a frozen human adrenal tissue specimen containing a lesion region having an aldosterone-producing tumor site, and a normal region in an adjacent part to the lesion region, in vitro autoradiography was performed. Specifically, a slide glass on which a section prepared by embedding the specimen in an embedding medium for preparing a frozen tissue section (Tissue-Tek O.C.T. Compound, manufactured by Sakura Finetek Japan Co., Ltd.), and thinly cutting the embedded specimen of human adrenal tissue to have a thickness of 7 μm had been pasted (stored at −80° C., hereinafter, referred to as human adrenal section) was used for experiment.
(§2) A solution of each of Compounds [^18F]100, [^18F]101, [^18F]102, and […], which had been obtained in Reference Example 2, Example 2, 4, or 6, and Compound [^123I]IMTO (reference compound) was dispensed into a vial, and the amount of radioactivity was measured by a radioisotope dose calibrator (CRC-15R, manufactured by Capintec, Inc.) The radioactive concentration of a solution that had been prepared by adding each solution obtained above to human plasma (hereinafter referred to as reaction mixture) was measured by using an autowell gamma system (ARC-7001, manufactured by Hitachi, Ltd.).
(§3) For preincubation, a human adrenal section was immersed in phosphate-buffered saline (PBS) at 37° C. for 5 minutes, and then immersed in human plasma at 37° C. for 5 minutes. Next, as a reaction step, the human adrenal section was immersed in the reaction mixture at 37° C. for 10 minutes. After that, the human adrenal section was washed with human plasma five times at 37° C. for 2 minutes, and then air-dried. Further, a piece of filter paper, which had been cut out into a circular shape and had been pasted on a slide glass, was impregnated with a known amount of the reaction mixture, and then air dried, and the resultant piece was used as a standard radiation source.
(§4) The air-dried human adrenal section and the air-dried standard radiation source were exposed to an imaging plate (BAS-SR2040, manufactured by Fujifilm Corporation) (IP sheet), and autoradiograms were obtained by a fluoro image analyzer (Typhoo FLA 7000 IP, manufactured by GE Healthcare Japan Corporation). A region of interest (ROI) was set in each of the lesion region and normal region obtained on the autoradiograms, and the radiation count was determined. The ROI was also set for the standard radiation source, and the radiation count was determined.
(§5) For the autoradiograms obtained for the human adrenal section, the radiation count (correction value) of each region (lesion region or normal region) was determined as in formula (1) as a correction value to the standard radiation source.
(§6) The binding ability of the compound according to the present invention (each of Compounds [^18F]101, [^18F]102, and [^18F]103) to each region (lesion region or normal region) was determined as in formulas (2) and (3) as the relative value in a case where the radiation count (correction value) in each region of ^[123I]IMTO (reference compound) was set to 1. Further, the lesion/normal ratio was determined as in formula (4).

The subject of series [3] is lesion region having an aldosterone-producing tumor site (human adrenal section). The series can be described thus: In vitro autoradiography using human adrenal tumor: binding ability to lesion region. The note with it: for B2, binding ability to a lesion region, ratio to reference compound: relative to [123I]IMTO = 1, human plasma, 37° C., 10 minutes; for concentration shown at the lesion sites on autoradiograms (FIG. 1): Samples 1 to 6, compared with Compound [18F]100. How it is done: as §1, §2, §3, §4, §5, §6

Regarding `Fc1ccc2nc(-c3cncc(Cn4ccnc4)c3)n(CC[18F])c2c1` [Compound [^18F]101, 6-fluoro-1-(2-[^18F]fluoroethyl)-2-[5-(imidazol-1-ylmethyl)pyridin-3-yl]benzimidazole], the “radioactivity accumulation in tissues (the liver, kidney, and spleen) surrounding the adrenal glands” value (“radioactivity accumulation in tissues” for short) in series [1] was “decreased over time”. For the same compound, the “high radioactivity accumulation that would be an obstacle in the adrenal gland imaging” value in series [1] was “not observed”. Further, the “B1, binding ability to a normal region, ratio to reference compound” value in series [2] (Sample 1) stood at 0.00; in series [2] (Sample 2) it was 0.01; in series [2] (Sample 3) it was 0.03; in series [2] (Sample 4), 0.01; in series [2] (Sample 5), 0.01; in series [2] (Sample 6), 0.01. Besides, the “B2/B1, lesion/normal ratio” value in series [3] (Sample 1) stood at 14.44; in series [3] (Sample 2), 19.66; in series [3] (Sample 3), 8.44; in series [3] (Sample 4), 8.28; in series [3] (Sample 5), 14.94; in series [3] (Sample 6) it was 37.80. Besides, the “B2, binding ability to a lesion region, ratio to reference compound” value in series [3] (Sample 1) came to 0.19; in series [3] (Sample 2), 0.24; in series [3] (Sample 3), 0.32; in series [3] (Sample 4), 0.21; in series [3] (Sample 5), 0.13; in series [3] (Sample 6), 0.45. In addition, the “concentration shown at the lesion sites on autoradiograms (FIG. 1)” value (“concentration shown at the lesion sites” below) in series [3] is “higher concentration than that of Compound [^18F]100”.

In the case of `Fc1cc2nc(-c3cncc(Cn4ccnc4)c3)n(CC[18F])c2cc1F` [Compound [^18F]102, 5,6-difluoro-1-(2-[^18F]fluoroethyl)-2-[5-(imidazol-1-ylmethyl)pyridin-3-yl]benzimidazole], the “radioactivity accumulation in tissues” value in series [1] is “decreased over time”. In addition, the “high radioactivity accumulation that would be an obstacle in the adrenal gland imaging” value in series [1] was “not observed”. Moreover, the “B1, binding ability to a normal region, ratio to reference compound” value in series [2] (Sample 1) is recorded as 0.01; in series [2] (Sample 2), 0.03; in series [2] (Sample 3) it was 0.05; in series [2] (Sample 4), 0.05; in series [2] (Sample 5), 0.01; in series [2] (Sample 6) it was 0.03. Also, the “B2/B1, lesion/normal ratio” value was 6.78 in series [3] (Sample 1); 8.69 in series [3] (Sample 2); 8.20 in series [3] (Sample 3); 4.32 in series [3] (Sample 4); 9.21 in series [3] (Sample 5); 23.93 in series [3] (Sample 6). For the same compound, the “B2, binding ability to a lesion region, ratio to reference compound” value in series [3] (Sample 1) was determined as 0.19; in series [3] (Sample 2), 0.31; in series [3] (Sample 3), 0.65; in series [3] (Sample 4), 0.41; in series [3] (Sample 5), 0.14; in series [3] (Sample 6), 0.63. For the same compound, the “concentration shown at the lesion sites” value in series [3] is “higher concentration than that of Compound [^18F]100”.

On to `N#Cc1cc2c(cc1F)nc(-c1cncc(Cn3ccnc3)c1)n2CC[18F]` [Compound [^18F]103, 2-[5-(1H-imidazol-1-ylmethyl)pyridin-3-yl]-5-fluoro-1-(2-[^18F]fluoroethyl)-1H-benzo[d]imidazole-6-carbonitrile], for which the “radioactivity accumulation in tissues” value in series [1] is on record as “decreased over time”. In series [1], the “high radioactivity accumulation that would be an obstacle in the adrenal gland imaging” value was “not observed”. Also, the “B1, binding ability to a normal region, ratio to reference compound” value in series [2] (Sample 1) is 0.02; in series [2] (Sample 2), 0.04; in series [2] (Sample 3), 0.20; in series [2] (Sample 4), 0.08; in series [2] (Sample 5) it was 0.04; in series [2] (Sample 6), 0.07. In addition, the “B2/B1, lesion/normal ratio” value came to 4.57 in series [3] (Sample 1); 12.05 in series [3] (Sample 2); 2.68 in series [3] (Sample 3); 2.03 in series [3] (Sample 4); 5.17 in series [3] (Sample 5); 15.42 in series [3] (Sample 6). In addition, the “B2, binding ability to a lesion region, ratio to reference compound” value turned out to be 0.23 in series [3] (Sample 1); 0.46 in series [3] (Sample 2); 0.79 in series [3] (Sample 3); 0.33 in series [3] (Sample 4); 0.29 in series [3] (Sample 5); 1.09 in series [3] (Sample 6). The “concentration shown at the lesion sites” value in series [3] was “higher concentration than that of Compound [^18F]100”.
